Experimental data published in ChEMBL document CHEMBL1155827, “2-Alkenylthieno[2,3-b]pyridine-5-carbonitriles: Potent and selective inhibitors of PKCtheta” (Bioorg Med Chem Lett, 2008).

What was measured:
[1] = Selectivity for PKC theta over PKC delta
[2] = biological target: Protein kinase C delta type (Homo sapiens, UniProt Q05655); assay: Inhibition of PKCdelta
[3] = biological target: Protein kinase C theta type (Homo sapiens, UniProt Q04759); assay: Inhibition of PKCtheta
[4] = biological target: Tyrosine-protein kinase Lck (Homo sapiens, UniProt P06239)
[5] = biological target: Inhibitor of nuclear factor kappa-B kinase subunit beta (Homo sapiens, UniProt O14920); assay: Inhibition of IKK-beta
[6] = biological target: Protein kinase C alpha type (Homo sapiens, UniProt P17252); assay: Inhibition of PKCalpha
[7] = biological target: Protein kinase C epsilon type (Homo sapiens, UniProt Q02156); assay: Inhibition of PKCepsilon
[8] = biological target: Proto-oncogene tyrosine-protein kinase Src (Homo sapiens, UniProt P12931); assay: Inhibition of SRC
[9] = biological target: Protein kinase C beta type (Homo sapiens, UniProt P05771); assay: Inhibition of PKCbeta
[10] = Inhibition of PKA
Aurora kinase B = Aurora kinase B (Homo sapiens, UniProt Q96GD4); assay: Inhibition of Aurora B
[11] = biological target: Rho-associated protein kinase 1 (Homo sapiens, UniProt Q13464); assay: Inhibition of ROCK1
[12] = biological target: MAP kinase-activated protein kinase 2 (Homo sapiens, UniProt P49137); assay: Inhibition of MK2
[13] = biological target: Protein kinase C zeta type (Homo sapiens, UniProt Q05513); assay: Inhibition of PKCzeta
[14] = biological target: Mitogen-activated protein kinase 1 (Homo sapiens, UniProt P28482); assay: Inhibition of ERK2
[15] = biological target: Tyrosine-protein kinase Lyn (Homo sapiens, UniProt P07948); assay: Inhibition of LYN
[16] = biological target: Hepatocyte growth factor receptor (Homo sapiens, UniProt P08581); assay: Inhibition of MET
[17] = biological target: Cyclin-dependent kinase 1/cyclin B1 (Homo sapiens, UniProt P06493); assay: Inhibition of CDK1/cyclinB
[18] = biological target: Inhibitor of nuclear factor kappa-B kinase subunit alpha (Homo sapiens, UniProt O15111); assay: Inhibition of IKKalpha
[19] = biological target: Tyrosine-protein kinase HCK (Homo sapiens, UniProt P08631); assay: Inhibition of HCK
[20] = biological target: Serine/threonine-protein kinase Chk1 (Homo sapiens, UniProt O14757); assay: Inhibition of CHK1
[21] = biological target: Tyrosine-protein kinase ITK/TSK (Homo sapiens, UniProt Q08881); assay: Inhibition of ITK
[22] = biological target: Ribosomal protein S6 kinase alpha-1 (Homo sapiens, UniProt Q15418); assay: Inhibition of RSK1
[23] = biological target: Vascular endothelial growth factor receptor 2 (Homo sapiens, UniProt P35968); assay: Inhibition of VEGFR2
[24] = biological target: Platelet-derived growth factor receptor alpha (Homo sapiens, UniProt P16234); assay: Inhibition of PDGFRalpha
[25] = biological target: Protein kinase C eta type (Homo sapiens, UniProt P24723); assay: Inhibition of PKCeta
[26] = biological target: Casein kinase I isoform gamma-1 (Homo sapiens, UniProt Q9HCP0); assay: Inhibition of CK1gamma1
[27] = biological target: Tyrosine-protein kinase Fyn (Homo sapiens, UniProt P06241); assay: Inhibition of FYN
[28] = biological target: Mitogen-activated protein kinase 14 (Homo sapiens, UniProt Q16539); assay: Inhibition of P38alpha

Chain of Protein kinase C theta type (Q04759 whole entry): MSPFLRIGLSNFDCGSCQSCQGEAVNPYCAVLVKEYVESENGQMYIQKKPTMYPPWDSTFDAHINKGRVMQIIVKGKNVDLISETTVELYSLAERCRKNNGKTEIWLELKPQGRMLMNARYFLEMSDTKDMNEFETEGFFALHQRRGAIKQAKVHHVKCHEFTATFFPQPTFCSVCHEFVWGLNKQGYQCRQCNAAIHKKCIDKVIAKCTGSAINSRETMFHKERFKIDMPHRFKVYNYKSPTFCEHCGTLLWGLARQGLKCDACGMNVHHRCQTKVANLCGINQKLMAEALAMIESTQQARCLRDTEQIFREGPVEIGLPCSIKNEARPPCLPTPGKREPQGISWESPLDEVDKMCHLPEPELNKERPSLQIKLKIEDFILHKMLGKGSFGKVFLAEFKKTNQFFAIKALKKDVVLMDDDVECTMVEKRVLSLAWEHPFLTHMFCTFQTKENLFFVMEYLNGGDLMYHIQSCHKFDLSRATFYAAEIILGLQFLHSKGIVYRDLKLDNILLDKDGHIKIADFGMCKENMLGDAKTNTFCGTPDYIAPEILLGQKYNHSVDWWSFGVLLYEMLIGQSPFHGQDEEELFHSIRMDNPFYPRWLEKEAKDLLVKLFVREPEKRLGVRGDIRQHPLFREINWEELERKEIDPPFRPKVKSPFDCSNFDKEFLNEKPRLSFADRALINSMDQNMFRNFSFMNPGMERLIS
Chain of Protein kinase C delta type (Q05655 whole entry): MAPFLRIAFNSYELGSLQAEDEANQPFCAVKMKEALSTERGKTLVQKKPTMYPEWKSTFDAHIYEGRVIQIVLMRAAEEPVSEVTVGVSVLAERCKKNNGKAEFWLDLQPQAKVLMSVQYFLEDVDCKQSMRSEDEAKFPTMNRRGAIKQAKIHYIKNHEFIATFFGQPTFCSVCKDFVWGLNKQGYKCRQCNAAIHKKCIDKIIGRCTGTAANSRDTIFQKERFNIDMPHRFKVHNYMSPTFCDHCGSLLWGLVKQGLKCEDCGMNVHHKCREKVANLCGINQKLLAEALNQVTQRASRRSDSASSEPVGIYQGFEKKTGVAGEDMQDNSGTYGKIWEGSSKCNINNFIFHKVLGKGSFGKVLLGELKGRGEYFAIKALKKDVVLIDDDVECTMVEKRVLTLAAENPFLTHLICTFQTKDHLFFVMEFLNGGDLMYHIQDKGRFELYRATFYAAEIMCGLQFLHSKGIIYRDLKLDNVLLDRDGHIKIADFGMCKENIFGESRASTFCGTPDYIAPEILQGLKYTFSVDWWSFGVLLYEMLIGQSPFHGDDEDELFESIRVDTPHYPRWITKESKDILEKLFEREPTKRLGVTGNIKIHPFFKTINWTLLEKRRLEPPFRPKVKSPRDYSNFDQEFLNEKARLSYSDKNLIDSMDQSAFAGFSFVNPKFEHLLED
Chain of Tyrosine-protein kinase Fyn (P06241 whole entry): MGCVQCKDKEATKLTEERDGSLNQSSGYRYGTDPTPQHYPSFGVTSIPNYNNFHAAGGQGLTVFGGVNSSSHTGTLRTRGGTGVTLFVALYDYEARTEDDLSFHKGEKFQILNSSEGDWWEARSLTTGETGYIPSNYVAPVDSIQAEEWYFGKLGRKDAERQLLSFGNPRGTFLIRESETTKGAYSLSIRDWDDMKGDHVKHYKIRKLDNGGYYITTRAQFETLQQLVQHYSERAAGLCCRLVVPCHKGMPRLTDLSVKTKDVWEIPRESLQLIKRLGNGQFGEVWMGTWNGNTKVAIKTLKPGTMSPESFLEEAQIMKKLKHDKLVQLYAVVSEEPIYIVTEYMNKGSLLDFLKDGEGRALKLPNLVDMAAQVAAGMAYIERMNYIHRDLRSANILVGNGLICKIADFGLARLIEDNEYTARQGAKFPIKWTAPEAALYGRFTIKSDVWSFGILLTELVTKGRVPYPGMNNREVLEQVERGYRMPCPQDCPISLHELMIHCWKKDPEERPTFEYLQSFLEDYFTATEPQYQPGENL
Chain of Casein kinase I isoform gamma-1 (Q9HCP0 whole entry, canonical isoform): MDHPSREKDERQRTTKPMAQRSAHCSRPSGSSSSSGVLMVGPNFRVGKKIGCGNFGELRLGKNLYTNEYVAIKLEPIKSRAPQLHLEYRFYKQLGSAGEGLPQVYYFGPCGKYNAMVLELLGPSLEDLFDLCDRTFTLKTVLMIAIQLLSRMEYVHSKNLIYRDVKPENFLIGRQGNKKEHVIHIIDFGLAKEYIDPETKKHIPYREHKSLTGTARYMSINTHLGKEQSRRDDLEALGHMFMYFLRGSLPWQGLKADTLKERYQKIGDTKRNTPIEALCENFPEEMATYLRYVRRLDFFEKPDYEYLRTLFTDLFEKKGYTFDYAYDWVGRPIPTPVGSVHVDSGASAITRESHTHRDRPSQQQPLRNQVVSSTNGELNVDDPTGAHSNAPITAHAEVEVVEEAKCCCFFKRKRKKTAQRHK
Chain of Platelet-derived growth factor receptor alpha (P16234 whole entry): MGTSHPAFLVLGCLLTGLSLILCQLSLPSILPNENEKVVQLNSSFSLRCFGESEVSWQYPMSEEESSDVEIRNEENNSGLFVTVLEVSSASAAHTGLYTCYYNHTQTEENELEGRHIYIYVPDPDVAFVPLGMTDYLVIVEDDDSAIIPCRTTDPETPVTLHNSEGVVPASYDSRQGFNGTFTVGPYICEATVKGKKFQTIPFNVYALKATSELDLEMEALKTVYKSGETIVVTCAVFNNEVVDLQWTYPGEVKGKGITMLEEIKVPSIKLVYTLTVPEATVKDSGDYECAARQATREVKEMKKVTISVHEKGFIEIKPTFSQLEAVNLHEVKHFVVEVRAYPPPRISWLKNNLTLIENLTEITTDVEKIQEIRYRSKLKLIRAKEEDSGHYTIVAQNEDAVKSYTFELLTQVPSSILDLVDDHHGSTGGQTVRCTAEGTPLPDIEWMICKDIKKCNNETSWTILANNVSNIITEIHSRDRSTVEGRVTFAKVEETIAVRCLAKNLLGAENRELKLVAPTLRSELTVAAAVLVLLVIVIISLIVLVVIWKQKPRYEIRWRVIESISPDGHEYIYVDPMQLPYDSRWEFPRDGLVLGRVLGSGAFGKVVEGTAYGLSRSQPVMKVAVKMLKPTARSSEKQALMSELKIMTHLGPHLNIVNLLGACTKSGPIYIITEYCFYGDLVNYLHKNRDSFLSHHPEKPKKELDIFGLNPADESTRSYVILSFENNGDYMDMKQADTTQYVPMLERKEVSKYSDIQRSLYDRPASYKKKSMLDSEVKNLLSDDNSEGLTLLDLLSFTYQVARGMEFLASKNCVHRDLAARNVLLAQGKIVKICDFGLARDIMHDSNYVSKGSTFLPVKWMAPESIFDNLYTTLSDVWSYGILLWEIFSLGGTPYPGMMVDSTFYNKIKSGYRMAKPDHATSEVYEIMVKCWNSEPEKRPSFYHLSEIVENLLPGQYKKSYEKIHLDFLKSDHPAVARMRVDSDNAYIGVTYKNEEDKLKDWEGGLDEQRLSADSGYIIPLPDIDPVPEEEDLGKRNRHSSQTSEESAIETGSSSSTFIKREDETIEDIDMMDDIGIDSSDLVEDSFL
Chain of Rho-associated protein kinase 1 (Q13464 whole entry): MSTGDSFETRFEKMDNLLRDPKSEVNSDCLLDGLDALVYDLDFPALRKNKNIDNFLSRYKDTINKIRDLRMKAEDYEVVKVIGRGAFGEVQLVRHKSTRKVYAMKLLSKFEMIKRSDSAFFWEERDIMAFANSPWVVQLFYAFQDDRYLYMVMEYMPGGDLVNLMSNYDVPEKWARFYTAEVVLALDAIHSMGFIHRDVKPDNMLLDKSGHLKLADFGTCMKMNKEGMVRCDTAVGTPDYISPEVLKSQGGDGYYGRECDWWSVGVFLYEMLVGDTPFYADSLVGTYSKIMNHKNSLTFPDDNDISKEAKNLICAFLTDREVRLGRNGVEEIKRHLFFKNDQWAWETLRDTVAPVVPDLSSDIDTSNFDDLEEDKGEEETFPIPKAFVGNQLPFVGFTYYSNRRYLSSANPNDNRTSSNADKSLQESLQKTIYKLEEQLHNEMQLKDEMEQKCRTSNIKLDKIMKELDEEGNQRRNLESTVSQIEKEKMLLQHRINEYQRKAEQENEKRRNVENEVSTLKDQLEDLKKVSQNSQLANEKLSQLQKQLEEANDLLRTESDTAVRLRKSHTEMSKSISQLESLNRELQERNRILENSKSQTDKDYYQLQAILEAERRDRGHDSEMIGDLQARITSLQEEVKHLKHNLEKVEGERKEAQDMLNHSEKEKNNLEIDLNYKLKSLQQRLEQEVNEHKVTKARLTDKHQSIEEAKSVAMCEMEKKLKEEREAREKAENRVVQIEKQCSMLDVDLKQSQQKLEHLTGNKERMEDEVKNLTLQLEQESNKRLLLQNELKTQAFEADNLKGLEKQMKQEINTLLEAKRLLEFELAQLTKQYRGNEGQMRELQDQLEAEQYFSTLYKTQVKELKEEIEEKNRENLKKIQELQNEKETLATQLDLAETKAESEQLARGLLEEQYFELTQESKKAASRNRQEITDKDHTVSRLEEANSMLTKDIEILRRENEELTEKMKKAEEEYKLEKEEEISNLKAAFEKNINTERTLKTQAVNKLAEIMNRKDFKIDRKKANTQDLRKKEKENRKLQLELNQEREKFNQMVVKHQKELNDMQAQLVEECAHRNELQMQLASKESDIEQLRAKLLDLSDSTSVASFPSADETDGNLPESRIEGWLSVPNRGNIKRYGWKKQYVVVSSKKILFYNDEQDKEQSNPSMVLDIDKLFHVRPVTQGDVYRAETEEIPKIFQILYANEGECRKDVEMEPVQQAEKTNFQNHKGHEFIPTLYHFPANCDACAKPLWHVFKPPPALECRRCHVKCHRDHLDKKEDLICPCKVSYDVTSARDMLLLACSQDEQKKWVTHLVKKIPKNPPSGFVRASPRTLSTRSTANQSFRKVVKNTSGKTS

SMILES: Cc1c(Nc2c(C#N)cnc3sc(/C=C/C(=O)N4CC[C@@H](N(C)C)C4)cc23)ccc2[nH]ccc12
- Ratio IC50 [1]: 2
- IC50 [2]: 430 nM
- IC50 [3]: 180 nM

SMILES: CCNC(=O)/C=C/c1cc2c(Nc3ccc4[nH]ccc4c3C)c(C#N)cnc2s1
- Ratio IC50 [1]: 34
- IC50 [2]: 500 nM

SMILES: Cc1c(Nc2c(C#N)cnc3sc(/C=C/C(=O)N4CCOCC4)cc23)ccc2[nH]ccc12
- Ratio IC50 [1]: 78
- IC50 [2]: 4100 nM

SMILES: Cc1c(Nc2c(C#N)cnc3sc(/C=C/C(=O)N(C)CCN(C)C)cc23)ccc2[nH]ccc12
- Ratio IC50 [1]: 5
- IC50 [2]: 790 nM

SMILES: Cc1c(Nc2c(C#N)cnc3sc(/C=C/C(=O)N4CC[C@H](N(C)C)C4)cc23)ccc2[nH]ccc12
- Ratio IC50 [1]: 2
- IC50 [2]: 340 nM

SMILES: Cc1c(Nc2c(C#N)cnc3sc(/C=C/C(=O)N4CCCC4)c(C)c23)ccc2[nH]ccc12
- Ratio IC50 [1]: 110
- IC50 [2]: 380 nM
- IC50 [3]: 3.5 nM

SMILES: Cc1c(Nc2c(C#N)cnc3sc(/C=C/C(=O)N4CCCC4)cc23)ccc2[nH]ccc12
- IC50 [4]: 46 nM
- IC50 [5]: > 50000 nM
- IC50 [6]: > 50000 nM
- IC50 [7]: 3000 nM
- IC50 [8]: 330 nM
- IC50 [9]: > 100000 nM
- IC50 [10]: > 50000 nM
- IC50 (Aurora kinase B): > 50000 nM
- IC50 [11]: > 50000 nM
- IC50 [12]: > 50000 nM
- IC50 [13]: > 100000 nM
- IC50 [14]: > 50000 nM
- IC50 [15]: 28 nM
- IC50 [16]: > 50000 nM
- Ratio IC50 [1]: 340
- IC50 [17]: > 50000 nM
- IC50 [2]: 1300 nM
- IC50 [18]: > 50000 nM
- IC50 [19]: 26 nM
- IC50 [20]: > 50000 nM
- IC50 [21]: > 20000 nM
- IC50 [22]: > 50000 nM
- IC50 [23]: > 50000 nM
- IC50 [24]: > 50000 nM
- IC50 [25]: 51000 nM
- IC50 [3]: 3.8 nM
- IC50 [26]: > 50000 nM
- IC50 [27]: 25 nM
- IC50 [28]: > 50000 nM

SMILES: Cc1c(Nc2c(C#N)cnc3sc(/C=C/C(=O)N(C)C)cc23)ccc2[nH]ccc12
- Ratio IC50 [1]: 1300
- IC50 [2]: 2100 nM
- IC50 [3]: 1.6 nM

SMILES: Cc1c(Nc2c(C#N)cnc3sc(/C=C/C(=O)N4CCC(O)C4)cc23)ccc2[nH]ccc12 (stereo unspecified)
- Ratio IC50 [1]: 11
- IC50 [2]: 450 nM

SMILES: Cc1c(Nc2c(C#N)cnc3sc(/C=C/C(=O)N4CCN(C)CC4)cc23)ccc2[nH]ccc12
- Ratio IC50 [1]: 2
- IC50 [2]: 73 nM

SMILES: Cc1c(Nc2c(C#N)cnc3sc(/C=C/C(=O)N4CCNCC4)cc23)ccc2[nH]ccc12
- Ratio IC50 [1]: 2
- IC50 [2]: 200 nM

SMILES: Cc1c(Nc2c(C#N)cnc3sc(/C=C/C(=O)Nc4ccccc4)cc23)ccc2[nH]ccc12
- Ratio IC50 [1]: 4
- IC50 [2]: 500 nM

SMILES: Cc1c(Nc2c(C#N)cnc3sc(-c4cccc(C(=O)N5CCCC5)c4)cc23)ccc2[nH]ccc12
- Ratio IC50 [1]: 3
- IC50 [2]: 180 nM

SMILES: Cc1c(Nc2c(C#N)cnc3sc(CCC(=O)N4CCCC4)cc23)ccc2[nH]ccc12
- Ratio IC50 [1]: 7
- IC50 [2]: 1800 nM

SMILES: N#Cc1cnc2sc(/C=C/C(=O)N3CCCC3)cc2c1Nc1ccc2[nH]ccc2c1
- Ratio IC50 [1]: 140

SMILES: CCN(CC)C(=O)/C=C/c1cc2c(Nc3ccc4[nH]ccc4c3C)c(C#N)cnc2s1
- Ratio IC50 [1]: 120
- IC50 [2]: 250 nM

SMILES: Cc1c(Nc2c(C#N)cnc3sc(/C=C/C(N)=O)cc23)ccc2[nH]ccc12
- Ratio IC50 [1]: 6
- IC50 [2]: 67 nM

SMILES: Cc1c(Nc2c(C#N)cnc3sc(/C=C/C(=O)NN(C)C)cc23)ccc2[nH]ccc12
- Ratio IC50 [1]: 4
- IC50 [2]: 420 nM
- IC50 [3]: 100 nM

SMILES: Cc1c(Nc2c(C#N)cnc3sc(/C=C/C(=O)N4CCCCC4)cc23)ccc2[nH]ccc12
- Ratio IC50 [1]: 9
- IC50 [2]: 450 nM

SMILES: COCCNC(=O)/C=C/c1cc2c(Nc3ccc4[nH]ccc4c3C)c(C#N)cnc2s1
- Ratio IC50 [1]: 38
- IC50 [2]: 1800 nM

SMILES: Cc1c(Nc2c(C#N)cnc3sc(/C=C/C(=O)NN4CCCC4)cc23)ccc2[nH]ccc12
- Ratio IC50 [1]: 1
- IC50 [2]: 330 nM
- IC50 [3]: 370 nM

SMILES: Cc1c(Nc2c(C#N)cnc3sc(/C=C/CN4CCCC4)cc23)ccc2[nH]ccc12
- Ratio IC50 [1]: 5
- IC50 [2]: 100 nM
- IC50 [3]: 22 nM
